These results are taken from US11767310B2, “Nicotinamide RIPK1 inhibitors” (AbbVie Inc., priority 2021, dated 2023).

Marks after values point to notes of the source that are not given here.

In data set [1] the test system is U937 cells. Description: U937 TNF/zVAD Cytotoxicity Cell Assay. It counts as cell-based. Particulars: Homo sapiens, U-937; TNFα 10 ng/mL + Z-VAD FMK 20 μM, 16-20 hours; read-out: U937 TNF/zVAD Induced Cytotoxicity IC50. The method, then: Compounds were tested for their ability to prevent TNF induced necroptosis in U937 cells. Treatment with TNF and the caspase inhibitor zVAD-FMK results in the activation and phosphorylation of RIPK1 and subsequent phosphorylation of RIPK3 and MLKL (Mixed Lineage Kinase Domain Like Pseudokinase), leading to induction of necroptotic cell death that is measured as a reduction in cell viability. Similar U937 assay protocols have been previously described; see, e.g., Harris et al., ACS Med. Chem. Letters (2013) 4:1238-1243 and Supplementary Information.
Test compounds were solvated in dimethyl sulfoxide (DMSO) and 3-fold serially diluted from 10 uM to 0.0005 uM with technical duplicates into an empty 384 well plate. U937 cells were resuspended at a concentration of 500,000 cells/mL in fresh RPMI (Roswell Park Memorial Institute) 1640 growth medium containing 10% heat inactivated fetal bovine serum (FB1S) and seeded into a 384 well plate containing compounds and incubated for 1 hour at 37° C. Following incubation, the cells were challenged with TNFα (final concentration of 10 ng/mL) and Z-VAD FMK (N-Benzyloxycarbonyl-Val-Ala-Asp(O-Me) fluoromethyl ketone; final concentration of 20 μM) for 16-20 hours at 37° C. Following the incubation with TNFα/Z-VAD, cells were lysed with Cell Titer-Glo and incubated for 5-10 minutes. The plate was then read on an Envision plate reader. Data was normalized and analyzed with Studies from Dotmatics.

Data set [2] addresses RIPK1 (Homo sapiens (Human), UniProt Q13546). Description: RIPK1 Binding Assay. Particulars: displacement of fluorescent probe, TR-FRET. Here is the method:
Compounds were tested for their ability to displace a fluorescent probe from recombinant human RIPK1.
Recombinant human RIPK1 (1-375) was prepared as described in Harris et al., ACS Med. Chem. Letters (2013) 4:1238-1243 (Supplementary Information), with the following exceptions: (i) instead of using the gene sequence from NM_003804.3, the gene was synthesized with codon optimization for BEV expression system, and (ii) the gene was cloned into the vector pFastBac1, not pDEST8.
A fluorescent probe containing an Oregon green fluorophore was synthesized from a compound known to bind to RIPK1.
The assay was performed in a buffer containing 50 mM N-2-Hydroxyethylpiperazine-N′-2-ethanesulfonic acid (HEPES) (pH 7.5), 10 mM MgCl2, 1 mM ethylene diamine tetraacetic acid (EDTA), and 0.01% BRIJ-35 (Polyoxyethylene (23) lauryl ether). Test compounds were solvated in dimethyl sulfoxide (DMSO) at final concentrations 4-fold serially diluted from 100 to 0.000095 uM in technical duplicates into an empty 384 well plate. Recombinant RIPK1 (final concentration of 2.5 nM) was added to the wells and incubated with test compound for 1 hour at room temperature. A solution containing the fluorescent probe (final concentration 5 nM) and an LanthaScreen Tb-anti-GST antibody (Thermofisher Scientific; final concentration of 5 nM) was then added to each well, with the Tb-anti-GST antibody binding to the GST portion of the recombinant RIPK1 and providing the corresponding FRET pair to the fluorescent probe. The plate was incubated for 1 hour at room temperature and read on an Envision plate reader using a time resolved FRET protocol. Data was normalized and analyzed using Studies from Dotmatics.

The nature of data set [3]: Prodrug bioconversion in intestinal S9 cell fractions. The data set is classed as in vitro ADME. Particulars: 0.25 mg/mL. The method, then:
(§1) Phosphatase enzymes are […] expressed with unique tissue specific isoforms and are key catalysts in the conversion of phosphate-containing prodrugs. To determine if exemplary phosphate prodrug compounds of the invention are enzymatically converted to the parent molecule across relevant species, the prodrug compounds were incubated with intestinal S9 cell fractions obtained from mouse, rat, dog, monkey, and human.
Phosphate prodrugs were incubated (1 μM) for up to 2 hours in Tris-Cl buffer (pH 7.4) containing 3 mM magnesium chloride, intestinal S9 protein ([…] (ms, rat, hu, Table F) from mouse, rat, dog, monkey or human. Incubations were conducted in the absence and presence of 1 mM sodium orthovanadate, a phosphatase inhibitor. Prodrug depletion and parent formation were monitored by LC-MS/MS and normalized to internal standard as the analyte peak area ratio.

Assay in data set [4]: as above
The data set is classed as in vitro ADME. The method, then: as §1
[…] Incubations were conducted in the absence and presence of 1 mM sodium orthovanadate, a phosphatase inhibitor. Prodrug depletion and parent formation were monitored by LC-MS/MS and normalized to internal standard as the analyte peak area ratio.

Sequence of RIPK1 (Q13546 1-375): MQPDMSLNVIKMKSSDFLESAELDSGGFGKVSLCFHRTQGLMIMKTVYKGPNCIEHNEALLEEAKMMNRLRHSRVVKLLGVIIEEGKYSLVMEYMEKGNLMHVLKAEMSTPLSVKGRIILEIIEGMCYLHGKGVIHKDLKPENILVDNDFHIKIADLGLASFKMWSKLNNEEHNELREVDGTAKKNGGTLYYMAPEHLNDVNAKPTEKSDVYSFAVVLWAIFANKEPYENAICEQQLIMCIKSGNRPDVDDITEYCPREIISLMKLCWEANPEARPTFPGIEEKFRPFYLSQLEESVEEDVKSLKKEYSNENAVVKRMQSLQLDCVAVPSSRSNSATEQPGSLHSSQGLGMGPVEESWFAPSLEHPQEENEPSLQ

`CN(C[C@@H](O)Cc1ccccc1)C(=O)c1cncc(C#Cc2cnn(C(F)F)c2)c1` [Example 2, (S)-5-((1-(difluoromethyl)-1H-pyrazol-4-yl)ethynyl)-N-(2-hydroxy-3-phenylpropyl)-N-methylnicotinamide]: the results for the IC50 in data set [1] and in data set [2] were 11 nM and 4 nM, respectively.
For `CN(C[C@H](Cc1ccccc1)OP(=O)(O)O)C(=O)c1cncc(C#Cc2cnn(C(F)F)c2)c1` [Example 19, (S)-1-(5-((1-(difluoromethyl)-1H-pyrazol-4-yl)ethynyl)-N-methylnicotinamido)-3-phenylpropan-2-yl dihydrogen phosphate], the “Clint (prodrug disappearance)” value in data set [3] (Dog, Experiment 1) is 331 μL/min/mg intestinal S9 protein; in data set [3] (Dog, Experiment 2), 387 μL/min/mg intestinal S9 protein; in data set [3] (Dog, Experiment 3), 397 μL/min/mg intestinal S9 protein; in data set [3] (Dog, Mean of 3 experiments) it was 371.7 μL/min/mg intestinal S9 protein; in data set [3] (Monkey, Experiment 1) it was 87.5 μL/min/mg intestinal S9 protein; in data set [3] (Monkey, Experiment 2), 60.3 μL/min/mg intestinal S9 protein. Moreover, the “Clint (prodrug disappearance)” value is given as 60.7 μL/min/mg intestinal S9 protein in data set [3] (Monkey, Experiment 3); 69.5 μL/min/mg intestinal S9 protein in data set [3] (Monkey, Mean of 3 experiments); 1608.5 μL/min/mg intestinal S9 protein in data set [4] (Human, 0.01 mg/mL S9 protein, Table F); 296 μL/min/mg intestinal S9 protein in data set [4] (Human, 0.25 mg/mL S9 protein, Table F); 246 μL/min/mg intestinal S9 protein in data set [4] (Human, 0.25 mg/mL, Experiment 1); 228 μL/min/mg intestinal S9 protein in data set [4] (Human, 0.25 mg/mL, Experiment 2). In addition, the “Clint (prodrug disappearance)” value in data set [4] (Human, 0.25 mg/mL, Experiment 3) is listed as 235 μL/min/mg intestinal S9 protein; in data set [4] (Human, 0.25 mg/mL, Mean of 3 experiments) it was 236.3 μL/min/mg intestinal S9 protein; in data set [4] (Mouse, 0.01 mg/mL S9 protein, Table F), 116.8 μL/min/mg intestinal S9 protein; in data set [4] (Mouse, 0.25 mg/mL S9 protein, Table F) it was 54.7 μL/min/mg intestinal S9 protein; in data set [4] (Mouse, 0.25 mg/mL, Experiment 1), 43.1 μL/min/mg intestinal S9 protein; in data set [4] (Mouse, 0.25 mg/mL, Experiment 2), 74.6 μL/min/mg intestinal S9 protein. Moreover, the “Clint (prodrug disappearance)” value in data set [4] (Mouse, 0.25 mg/mL, Experiment 3) was 42.2 μL/min/mg intestinal S9 protein; in data set [4] (Mouse, 0.25 mg/mL, Mean of 3 experiments), 53.3 μL/min/mg intestinal S9 protein; in data set [4] (Rat, 0.01 mg/mL S9 protein, Table F), <137** μL/min/mg intestinal S9 protein; in data set [4] (Rat, 0.25 mg/mL S9 protein, Table F) it was 42.4 μL/min/mg intestinal S9 protein; in data set [4] (Rat, 0.25 mg/mL, Experiment 1) it was 25.6 μL/min/mg intestinal S9 protein; in data set [4] (Rat, 0.25 mg/mL, Experiment 2), 16.9 μL/min/mg intestinal S9 protein. In addition, the “Clint (prodrug disappearance)” value in data set [4] (Rat, 0.25 mg/mL, Experiment 3) is 50.6 μL/min/mg intestinal S9 protein; in data set [4] (Rat, 0.25 mg/mL, Mean of 3 experiments) it was 31 μL/min/mg intestinal S9 protein.
